Source: patent US9422238B2, “ICMT inhibitors” (National University of Singapore, priority 2012, dated 2016)
“Also recorded” adds a separate entry of the source. Where two headings read alike, the source gives them in different places.

Columns and labels:
[1] = system: Human lung fibroblast IMR90 cells; assay: Cell viability on non-malignant cells (MTS, 72 h); format: cell-based
Procedure: Cell viability was determined from the expression:
The plot was constrained to ≧0 and ≦100%.
Human lung fibroblast IMR90 cells were purchased from ATCC (Rockville, Md.) and grown in Eagle's Minimal Essential Media (EMEM, Sigma Aldrich, Singapore) at 37° C., 5% CO2. […] Seeding density was maintained at 4000 cells per well.

[2] = In vitro metabolite structure identification; format: in vitro ADME; settings: rat liver microsomes, 45 min, LC/MS/MS
Procedure: The test compound was incubated with rat liver microsomes for 45 minutes, after which aliquots were analyzed by LC/MS/MS for the presence of metabolites. The test compound was incubated with pooled rat liver microsomes (BD Gentest Corp, Woburn, Mass.) in a mixture (final volume 500 μL) comprising the following: rat liver microsomes (7.5 μL of 20 mg microsomal protein to give final concentration of 0.3 mg microsome protein/mL), test compound (2.5 μL of 1 mM test compound in acetonitrile to give final concentration of […]) and phosphate buffer (440 μL of 0.1 M, pH 7.4, containing 1 mM EDTA). The mixture was preincubated for 5 min at 37° C. in a shaking water bath, after which-reaction was initiated by adding 50 μL of 10 mM NADPH (freshly prepared in phosphate buffer) to give a final concentration of 1 mM NADPH in the mixture. Aliquots of 50 μL were withdrawn immediately on addition of NADPH (time 0) and 45 min later. On removal of the sample, reaction was quenched by addition of chilled methanol (100 μL). The mixture was then centrifuged at 10,000 g to remove the protein and the supernatant was analyzed by LC-MS-MS.
Liquid chromatography was performed on an Agilent® 1200 series HPLC system interfaced with a QTRAP 3200 triple quadruple mass spectrometer (Applied Biosystems, Foster City, Calif.). […]

[3] = system: human pancreatic cancer MIA PACA II cells; assay: Cell viability (MTS); format: cell-based; settings: MIA PaCa-2, Table 6, N = 2
Procedure: Human hepatocellular carcinoma HepG2 and human pancreatic cancer MIA PACA II cells were obtained from ATCC (Rockville, Md.). They were grown in DMEM (high glucose, Invitrogen) supplemented with 10% FBS, 50 μg/mL penicillin and 50 μg/mL streptomycin, 37° C., 5% CO2 until they reached 80-90% confluency, after which they were subcultured. Passage numbers were kept within 7-14 passages for both cell types.

[4] = system: PC3 cells; assay: In vitro scratch assay (cell migration); format: cell-based, human; settings: PC3, 24 h
Procedure: PC3 cells were seeded at 100 000 cells per well in a 6-well plate in media (DMEM, high glucose, 10% FBS, 50 μg/mL penicillin, 50 μg/mL streptomycin) and incubated (37° C., 5% CO2) for 36 hours until confluent. The cell monolayer was scraped in a straight line with a 1 mL pipette tip to create a “scratch” which was also marked at the bottom of the plate with a marker pen. The media was removed from the well which was then washed with PBS. Test compound in 2 mL DMEM (high glucose, 5% FBS) was added to each well (DMSO concentration of 0.05% v/v per well) and the plates were incubated at 37° C., 5% CO2. Control wells with PC3 monolayers were similarly treated. Scratches of approximately the same size were made on control and treated wells. Photographs of the scratched surfaces in wells were taken with a microscope fitted with a camera at the start of incubation and after 24 h. Magnification was kept constant at 40× for all acquired images. These were further analyzed by downloading the images into a Powerpoint® file and measuring (on-screen) the distances between one side of the scratch and the other. For each “scratch”, four or five distances were measured across the length of the scratch in the initial (0 h) image and these same distances were monitored after 24 h. Each compound was tested at 3 concentrations with 3 repeats made for each concentration.

[5] = system: HepG2 xenografts; assay: In vivo activity on xenograft bearing mice; settings: for deaths during the treatment period: 8 mice
Procedure: HepG2 cells were grown in DMEM and 10% FBS until near confluence and then harvested after trypsinization. […] The vehicle was ethanol-PEG400-dextrose solution as described in 5.2.1. The animals were monitored daily for changes in their general appearance, weight and tumor volume. Tumor volume was calculated using the formula: […]. Length (L) and width (W) of the tumor were measured with a digital vernier caliper and reported to 2 decimal places. The shorter of the 2 distances was taken as width. The mice were monitored—for 25-days after which they were euthanized with CO2, the tumors removed by dissection and weighed.

[6] = IMR-90, further testing, 72 h, mean (SD), read-out: IC50 IMR90

SMILES: CCCCCCCCn1cc(CN(CC)CC)c2cc(-c3cnc(N)nc3)ccc21 [Compound 8-12, 5-(3-Diethylaminomethyl-1-octyl-1H-indol-5-yl)-pyrimidin-2-ylamine]
- IC50 ([1]; IMR-90, Table 6, mean (SD), read-out: IC50 (μM) IMR90): 2.65 µM
- IC50 [1, 6]: 2.65 µM
- metabolites found [2]: four metabolites were proposed
- IC50 [3]: 1.6 µM
- gap closure in scratch assay [4]: the gap remained “open” at 2 and 2.5 μM but closed to some extent at a lower concentration of 1.5 μM
- deaths during the treatment period ([5]; 15 mg/kg IP daily, 25 days): one animal died
- deaths during the treatment period ([5]; 30 mg/kg IP daily, 25 days): Three deaths
- reduction in relative tumor volume ([5]; 15 and 30 mg/kg IP daily, p<0.05 vs control): Significant reduction in tumor volume was evident from Day 5 onwards for animals receiving 30 mg/kg and Day 7 onwards for animals receiving 15 mg/kg; also recorded: Reduction in tumor volume was significant from Day 5 and Day 7 onwards for animals dosed with 30 mg/kg and 15 mg/kg respectively
- weight of excised tumors vs control ([5]; after 25 days): significant weight loss compared to control

SMILES: CCCCCCCCn1c2c(c3cc(-c4cnc(N)nc4)ccc31)CN(C)CC2 [Compound 305, 8-(2′-amino-pyrimidin-5′-yl)-2-methyl-5-n-octyl-1,2,3,4-tetrahydropyrido[4,3-b]indole]
- IC50 [1, 6]: 5.29 µM

SMILES: CCCCCCCCn1cc(CC(N)=O)c2cc(-c3cccc(C)c3)ccc21 [Cysmethynil, 2-[5-(3-methylphenyl)-1-octyl-1H-indolo-3-yl]acetamide, reference compound]
- metabolites found [2]: 4 mono-oxygenated/hydroxylated metabolites (A-D)
- IC50 [3]: 22.5 µM
- gap closure in scratch assay [4]: the gap closed to some degree in the presence of 17.5 and 20 μM cysmethynil after 24 h, but remained open in cells treated with 22.5 μM cysmethynil
- body weight change ([5]; xenograft-bearing mice, 25 days): Weight loss was observed up to Day 11
